Experimental data reported in paper PMC5333456, “Characterization of HSP90 isoforms in transformed bovine leukocytes infected with Theileria annulata” (Cellular Microbiology, 2016).

Legend:
[1] = biological target: T1, TA12105 (T. annulata cytoplasmic HSP90) (Theileria annulata, UniProt Q4UDU8); assay: biochemical
[2] = biological target: T1, TA12105 (T. annulata cytoplasmic HSP90); assay: intrinsic tryptophan fluorescence quenching (ATPase Km […]); type: binding

T1 sequence (Q4UDU8 whole entry): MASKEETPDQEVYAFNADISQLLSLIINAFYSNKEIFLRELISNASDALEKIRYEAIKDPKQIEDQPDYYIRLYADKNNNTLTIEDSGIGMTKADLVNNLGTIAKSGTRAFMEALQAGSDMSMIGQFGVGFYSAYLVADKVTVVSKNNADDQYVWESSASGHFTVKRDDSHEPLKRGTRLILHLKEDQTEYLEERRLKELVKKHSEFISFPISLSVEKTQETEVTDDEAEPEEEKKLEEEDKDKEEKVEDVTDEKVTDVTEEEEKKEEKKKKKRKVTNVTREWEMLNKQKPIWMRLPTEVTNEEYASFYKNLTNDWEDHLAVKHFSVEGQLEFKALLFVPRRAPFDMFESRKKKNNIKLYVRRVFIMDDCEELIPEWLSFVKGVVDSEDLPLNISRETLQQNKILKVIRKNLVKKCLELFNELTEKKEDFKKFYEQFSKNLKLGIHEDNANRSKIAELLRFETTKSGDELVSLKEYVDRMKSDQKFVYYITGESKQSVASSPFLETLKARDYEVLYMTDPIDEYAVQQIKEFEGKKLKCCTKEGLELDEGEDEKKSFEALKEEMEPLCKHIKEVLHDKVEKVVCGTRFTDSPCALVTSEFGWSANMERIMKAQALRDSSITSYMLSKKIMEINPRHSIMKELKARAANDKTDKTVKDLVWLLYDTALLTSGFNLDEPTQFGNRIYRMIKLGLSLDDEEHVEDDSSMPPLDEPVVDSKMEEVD

Structure (SMILES) | Kd [1] [µM] | Kd [2] [µM]
C=CCNC1=C2C[C@@H](C)C[C@H](OC)[C@H](O)[C@@H](C)/C=C(\C)[C@H](OC(N)=O)[C@@H](OC)/C=C\C=C(/C)C(=O)NC(=CC1=O)C2=O [17-AAG] | 7.67 | –
Nc1ncnc2c1ncn2[C@@H]1O[C@H](COP(=O)(O)OP(=O)(O)OP(=O)(O)O)[C@@H](O)[C@H]1O [ATP] | – | 179
